Data set [1] deals with PC-3. In words: Growth inhibition assay, PA alone, PC-3. The data set is classed as cell-based. To be noted: PA alone (no DFMO), six days, repeat determinations, read-out: Cell Line IC50 PC-3. Put shortly: (§1)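 Test agents (polyamines, ORI compounds) are given together with 1 mM aminoguanidine so that serum amine oxidase is inhibited.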
The subject of data set [2] is SK-OV-3. In words: Growth inhibition assay, PA alone, SK-OV-3. The data set is classed as cell-based. The settings on record: PA alone (no DFMO), six days, repeat determinations, read-out: Cell Line IC50 SK-OV-3. Put shortly: as §1
In data set [3] the test system is 4 cell lines (A375, MDA-MB-231, PC-3, SK-OV-3). Description: Growth inhibition with DFMO, average over 4 cell lines. The data set is classed as cell-based. The settings on record: Table 3; average over cell lines, with DFMO; read-out: AVG. EC50.
Experimental: Cells were plated in 96-well plates such that they would be in log growth for the duration of the assay. The day after plating, PAs were added to the cells, and growth, if any, permitted to continue for six days in the presence of 1 mM AG and 0.5 μM SPD to insure that any growth inhibition was not the result of depletion of external polyamines in the media. At the end of the six days, cell growth was measured by MTS/PMS dye assay (Cell Titer 96 Aqueous Non-Radioactive Cell Proliferation Assay; Promega, Madison, Wis.).
For data set [4], the system named is polyamine transport in MDA-MB-231 cells. In words: Polyamine transport and Ki assay (3H-spermidine uptake). The data set is classed as cell-based. The settings on record: 15 min 37° C., Lineweaver-Burke analysis. How it is done: [2,9-^3H]spermidine (SPD) from DuPont NEN, Boston, Mass. was added alone or simultaneously with PAs to 24-well plates containing MDA-MB-23 1 cells in log growth. The cells were incubated at 37° C. for 15 min to determine initial rate polyamine uptake. The cells were then washed three times with cold PBS, lysed with 0.1% SDS, and the amount of polyamine incorporation into the cells was determined by scintillation counting of the cell lysates. […] The Ki values were determined using double reciprocal Lineweaver-Burke plot analyses. Ki values were determined from linear equations derived from graphing the slopes of Lineweaver-Burke plot vs. inhibitor concentration, with Ki=y-intercept/slope.

The test system of data set [5] is SK-OV-3. Description: Growth inhibition assay (MTS/PMS) with DFMO, SK-OV-3. The data set is classed as cell-based. To be noted: in the presence of DFMO (1-5 mM), 1 mM AG, 0.5 μM SPD, six days; repeat determinations; read-out: Cell Line EC50 SK-OV-3. As for the experimental part:
(§2) Medias were obtained from Mediatech, Inc. (Herdon, Va.) and serums from Gibco BRL (Gaithersburg, Md.). 50 U/ml penicillin, 50 μg/ml streptomycin and 2 mM L-glutamine (all from Bio Whittaker, Walkersville, Md.) were included in all cultures. […] When cells were cultured with polyamines or ORI compounds, 1 mM aminoguanidine (AG; Sigma) was included to inhibit serum amine oxidase activity.

The test system of data set [6] is MDA-MB-231. Description: Growth inhibition assay (MTS/PMS) with DFMO, MDA-MB-231. The settings on record: in the presence of DFMO (1-5 mM), 1 mM AG, 0.5 μM SPD, six days; repeat determinations; read-out: Cell Line EC50 MDA-MB-231. The data set is classed as cell-based. As for the experimental part: as §2
For data set [7], the system named is MDA-MB-231. Description: Growth inhibition assay, PA alone, MDA-MB-231. The data set is classed as cell-based. The settings on record: PA alone (no DFMO), six days; repeat determinations; read-out: Cell Line IC50 MDA-MB-231. Put shortly:
as §1

For data set [8], the system named is PC-3. Description: Growth inhibition assay (MTS/PMS) with DFMO, PC-3. The data set is classed as cell-based. The settings on record: in the presence of DFMO (1-5 mM), 1 mM AG, 0.5 μM SPD, six days; repeat determinations; read-out: Cell Line EC50 PC-3. How it is done:
as §2

Data set [9] has as its system A375. In words: Growth inhibition assay, PA alone, A375. The data set is classed as cell-based. To be noted: PA alone (no DFMO), six days, repeat determinations, read-out: Cell Line IC50 A375. Put shortly:
as §1

The subject of data set [10] is A375. In words: Growth inhibition assay (MTS/PMS) with DFMO, A375. The data set is classed as cell-based. To be noted: in the presence of DFMO (1-5 mM), 1 mM AG, 0.5 μM SPD, six days; repeat determinations; read-out: Cell Line EC50 A375. As for the experimental part: as §2
For data set [11] the following is noted: amino acid side chain, un-ionized fraction; Wolfenden 1981; cited from earlier work.

Values joined by “and” are separate entries in the source; they are usually repeats but may differ in a detail not shown here. Equal entries are not always repeated. Where two headings read alike, the source gives them in different places.

In the case of `CCCCCCCCCCCCCCCCCCCC(=O)NCCCC[C@H](N)C(=O)NCCCNCCCCNCCCN` [IA1], the IC50 in data set [1] and in [2] was more than 3000 nM in each case. Moreover, the EC50 (as a rule, the midpoint of the concentration-response curve) in data set [3] amounted to 17 nM. Besides, in data set [4], the Ki (as a rule, the equilibrium dissociation constant of an inhibitor or competing ligand from its target) came to 15 nM.
As to `CCCCCCCCCCCCCCCCCC(=O)NCCCC[C@H](N)C(=O)NCCCNCCCCNCCCN` [IA2], the EC50 is 27 nM and 21 nM in data set [5]; 14 nM in data set [3]. Further, affinity in data set [4] was put at a Ki of 1.4 nM.
On to `CCCCCCCCCCCCCCCC(=O)NCCCC[C@H](N)C(=O)NCCCNCCCCNCCCN` [IA4], for which the EC50 in [3] was determined as 77 nM. The compound further yielded a Ki in data set [4] of 1.5 nM.
`NCCCNCCCCNCCCNC(=O)[C@@H](N)CCCCNC(=O)OCc1ccccc1` [IA40]: the IC50 in data set [1] and in [7] was more than 300000 nM in each case. Also, the EC50 in [6] was 41300 nM and 29800 nM; in data set [8] it was 8510 nM and 7870 nM. This compound also displayed a Ki in data set [4] of 39 nM.
Turning to `CCCCCCCCCCCCCCCC(=O)NCCCC[C@@H](N)C(=O)NCCCNCCCCNCCCN` [IB4], the EC50 in [3] is 105 nM. Besides, the Ki in data set [4] is 17 nM.
Consider `CCCCCCCCC(=O)NCCCC[C@@H](N)C(=O)NCCCNCCCCNCCCN` [IB6], for which the IC50 (usually the point on the concentration scale where inhibition reaches its midpoint) in data set [1] (Homo sapiens, PC-3, 144 h) was more than 30000 nM; in data set [2] (Homo sapiens, SK-OV-3, 144 h), more than 30000 nM; in [9] (Homo sapiens, A-375, 144 h) it was more than 30000 nM. For the same compound, the Ki in [4] is 75 nM.
Regarding `CC(C)(C)OC(=O)N[C@@H](CCCCN)C(=O)NCCCNCCCCNCCCN` [IC41], the IC50 in [1] is 430000 nM; in data set [7] it was more than 300000 nM. The EC50 in data set [6] was 36900 nM; in data set [8], 16900 nM. The compound further had a Ki in [4] of 191 nM.
Take `CCCCCCCCCCCCCCCCS(=O)(=O)NCCCC[C@H](N)C(=O)NCCCNCCCCNCCCN` [IIA10]: the EC50 in data set [5] is 98 nM and 83 nM and 80 nM; in [10] it was 16 nM and 10 nM and 9 nM; in [3], 72 nM. The same compound gave a Ki in [4] of 4 nM.
As for `CCCCCCCCCCCCCCCCS(=O)(=O)NCCCC[C@@H](N)C(=O)NCCCNCCCCNCCCN` [IIB10], the IC50 was 22000 nM and 19900 nM in data set [1]; more than 30000 nM in [7]; 18100 nM and 23100 nM in data set [2]; 18000 nM and 17700 nM in data set [9]. In addition, the EC50 is 134 nM and 224 nM in data set [5]; 169 nM in [6]; 26 nM and 44 nM in [10]; 99 nM and 74 nM in data set [8]; 110 nM in data set [3]. The compound further showed a Ki in data set [4] of 2 nM.
Consider `CCCCCCCC/C=C/CCCCCCCC(=O)NCCCC[C@H](N)C(=O)NCCCNCCCCNCCCN` [IIIA2], for which the IC50 in [1], in data set [7], in [2] and in [9] was more than 30000 nM throughout. Further, the EC50 in data set [5] was 76 nM; in [6], 29 nM; in data set [10], 10 nM; in data set [8], 22 nM; in data set [3], 34 nM.
Take `CCCCC/C=C/C/C=C/CCCCCCCC(=O)NCCCC[C@H](N)C(=O)NCCCNCCCCNCCCN` [IIIA6]: the IC50 is 25800 nM in data set [1], more than 30000 nM in data set [7], more than 30000 nM in data set [2] and 22300 nM in data set [9]. Also, the EC50 came to 95 nM in data set [5]; 47 nM in data set [6]; 18 nM in data set [10]; 60 nM in data set [8]; 55 nM in data set [3].
On to `C[C@H](CCC(=O)NCCCC[C@H](N)C(=O)NCCCNCCCCNCCCN)[C@H]1CC[C@H]2[C@@H]3[C@H](O)C[C@@H]4C[C@H](O)CC[C@]4(C)[C@H]3C[C@H](O)[C@]12C` [IIIA7], for which the IC50 in data set [1], in data set [7], in data set [2] and in data set [9] was more than 3000 nM each time. The EC50 in data set [5] turned out to be 2940 nM; in data set [6], 215 nM; in data set [10], 87 nM; in [8] it was 255 nM; in data set [3], 874 nM.
In the case of `CCCCCCCC/C=C\CCCCCCCC(=O)NCCCC[C@@H](N)C(=O)NCCCNCCCCNCCCN` [IIIB1], the IC50 in [1], in [7], in data set [2] and in data set [9] was more than 30000 nM in each case. In addition, the EC50 in data set [5] is 1570 nM; in data set [6] it was 491 nM; in data set [10], 170 nM; in data set [8], 99 nM; in data set [3] it was 583 nM. The compound also registered a Ki in [4] of 54 nM.
For `CCCCCCCNCCCC[C@H](N)C(=O)NCCCNCCCCNCCCN` [IVA6], the IC50 in [1], in data set [7], in data set [2] and in [9] was more than 100000 nM in each case. Further, the EC50 was determined as 240 nM in [5]; 510 nM in [6]; 540 nM in data set [10]; 290 nM in data set [8]; 395 nM in data set [3].
With `CCCCCCCCCCCCCCCCNCCCC[C@H](N)C(=O)NCCCNCCCCNCCCN` [IVA11], the IC50 in data set [1], in data set [7], in data set [2] and in data set [9] was more than 3000 nM each time. Also, the EC50 in [5] was 81 nM; in data set [6], 19 nM; in data set [10], 10 nM; in data set [8] it was 46 nM; in [3], 39 nM.
Regarding `CC(C)(C)CCNCCCC[C@H](N)C(=O)NCCCNCCCCNCCCN` [IVA22], the IC50 in data set [1], in data set [7], in [2] and in [9] was more than 100000 nM throughout. In addition, the EC50 in data set [5] is 937 nM; in [6], 1660 nM; in [10] it was 739 nM; in data set [8] it was 711 nM; in data set [3] it was 1010 nM.
In the case of `NCCCNCCCCNCCCNC(=O)[C@@H](N)CCCCNCC1CC2C=CC1C2` (some centres unmarked) [IVA25], the IC50 in [1], in data set [7], in data set [2] and in [9] was more than 100000 nM in each case. For the same compound, the EC50 in data set [5] stood at 2300 nM; in data set [6], 3550 nM; in [10], 1040 nM; in [8] it was 710 nM; in data set [3], 1900 nM.
Take `NCCCNCCCCNCCCNC(=O)[C@H](N)CCCCNCC1CC2CCC1C2` (some centres unmarked) [IVB26]: the IC50 in [1], in data set [7], in data set [2] and in [9] was more than 100000 nM throughout. In addition, the EC50 is 7560 nM and 6070 nM in data set [5]; 1990 nM in data set [6]; 2400 nM in [10]; 910 nM and 1530 nM in data set [8]; 3410 nM in data set [3].
With `CCCCCCCNCCCC[C@@H](NCCCCCCC)C(=O)NCCCNCCCCNCCCN` [IVF6], the IC50 in [1] was more than 100000 nM; in data set [7], more than 100000 nM; in data set [2], 67700 nM; in data set [9] it was 67900 nM. Moreover, the EC50 in data set [5] worked out at 9500 nM; in data set [6], 8030 nM; in data set [10], 940 nM; in [8], 1880 nM; in data set [3], 5090 nM.
`NCCCNCCCCNCCCNC(=O)[C@@H](CCCCNCC1CCCCC1)NCC1CCCCC1` [IVF27]: the IC50 in [1], in data set [7], in [2] and in data set [9] was more than 100000 nM in each case. Moreover, the EC50 in data set [5] is 2160 nM; in data set [6] it was 2340 nM; in data set [10], 2180 nM; in data set [8], 500 nM; in [3], 1800 nM.
As for `[HH]` [hydrogen], the “free energy for the transfer from the vapor phase to H2O (hydration potential)” value (from here on “free energy for the transfer”) in data set [11] was 2.39 kcal/mol.
With `C` [methane], the “free energy for the transfer” value in data set [11] was 1.94 kcal/mol.
On to `CCCCN` [n-butylamine], for which, in data set [11], the “free energy for the transfer” value was -7.00 kcal/mol.
As for `CCCNC(=N)N` [n-propylguanidine], in [11], the “free energy for the transfer” value is -14.6 kcal/mol.

The values above are taken from patent publication USRE43327E1, “Hydrophobic polyamine analogs and methods for their use” (Aminex Therapeutics, Inc., priority 2001, dated 2012).
